{"source": "patent US7998414B2", "about": "“System for high throughput GPCR functional assay” (priority 2007, dated 2011)", "molecular_target": "T1, opioid receptor mu (OPRM) (Homo sapiens, UniProt P35372)", "T1 construct": "purchased Perkin-Elmer Life Science (Boston, Mass.)", "T1 sequence (P35372 whole entry)": "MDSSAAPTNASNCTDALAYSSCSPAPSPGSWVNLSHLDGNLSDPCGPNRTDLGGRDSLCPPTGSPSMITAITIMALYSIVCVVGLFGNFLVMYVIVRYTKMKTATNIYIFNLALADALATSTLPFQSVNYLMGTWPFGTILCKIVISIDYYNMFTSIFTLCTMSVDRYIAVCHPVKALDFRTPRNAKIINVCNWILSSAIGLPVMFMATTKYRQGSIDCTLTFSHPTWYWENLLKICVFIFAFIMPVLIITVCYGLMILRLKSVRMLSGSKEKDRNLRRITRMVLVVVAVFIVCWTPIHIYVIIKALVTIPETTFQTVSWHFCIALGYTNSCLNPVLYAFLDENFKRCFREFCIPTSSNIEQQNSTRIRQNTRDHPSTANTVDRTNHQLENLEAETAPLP", "experiment": "Eu-GTP based functional assay on GPCR microarray on porous glass substrate", "type": "biochemical", "details": "multiplexed array; Eu-GTP 10 nM, GDP 3 μM, 1 hour; FIG. 5E"}
{"smiles": "C[C@@H](NC(=O)[C@@H](N)Cc1ccc(O)cc1)C(=O)NCC(=O)N(C)[C@@H](Cc1ccccc1)C(=O)NCCO", "note": "[DAMGO]", "values": [{"measurement": "activation of OPRM receptors by agonist (Eu-GTP fluorescence image)", "result": "selective activation"}]}
